Measured values as given in patent US20030229451A1, “Methods and systems for analyzing complex biological systems” (priority 2001, published 2003).

How the values were obtained:
[1] = test system: Saccharomyces cerevisiae wild type strain BY4743; experiment: AF1 gene expression analysis of yeast cells treated with antifungal drugs; format: cell-based; details: for # Transcripts perturbed: 2x MIC, two hours; for # Pathways Affected by at Least One Gene: p < 0.05
Protocol: Saccharomyces cerevisiae wild type strain BY4743 was purchased from American Type Culture Center (ATCC, Manassas, Va.). The yeast strain was grown in YPD or SD media. H. […] The cultures started from fresh single colonies were grown in 1.0 ml YPD overnight at 30° C. […] The OD600 was adjusted to 1.0 with YPD media, then 2.0 ml of each was inoculated into three 250 ml flasks, each containing 50 ml of SD media. […] The cells were kept growing for another two hours, then collected by centrifugation at 4000 rpm for 5 minutes at 4° C. Pellets were washed once with ice-cold water, then were lyophilized overnight at 4° C. […] Tubes were vortexed for 30 seconds, then incubated for 10 minutes at room temperature (RT). […] Tubes were incubated for 10 minutes at RT. Samples were centrifuged for 20 minutes as before. Pellets were washed with 400 μl 70% ethanol and centrifuged for 10 minutes as before. The pellet was then dissolved in 100 μl nuclease-free water. RNA quality was determined using the Bioanalyzer 2100 and the RNA 6000 assay (Agilent Technologies, Palo Alto, Calif.) according to manufacturer's instructions. RNA concentrations were determined spectrophotometrically by measuring the absorption at, 260 nm in an Ultrospec 2000 (Pharmacia Biotech, Piscataway, N.J.). […] Labeled cRNAs were evaluated using the RNA 6000 assay on the Agilent Bioanalyzer 2100. Labeled cRNA concentrations were determined spectrophotometrically by measuring the absorption at 260 nm in an Ultrospec 2000 (Pharmacia Biotech, Piscataway, N.J.). […] Each pair of samples to be hybridized were independently labeled and hybridized utilizing a fluor reversal for a total of two hybridizations per sample pair. The microarrays were scanned simultaneously in the Cy3 and Cy5 channels with Agilent's 48-slide, Dual Laser DNA Microarray Scanner (Agilent Technologies, Palo Alto, Calif.) at 10 μm resolution using default settings. Image Analysis Software (Version A.4.0.45, Agilent Technologies, Palo Alto, Calif.) was used for image analysis. Each feature was determined from an array's associated pattern file and a detection algorithm. Intensity values for each feature were determined after subtracting background derived from an average of negative control features. Features with unusual pixel intensity statistics (e.g., high non-uniformity, saturation in either channel, and the like) were excluded from downstream analyses. Data was loaded into the Rosetta RESOLVER database (Rosetta Inpharmatics Inc., Kirkland, Wash.) for storage and analysis. Data was evaluated after combining results from fluor reversal replicate hybridizations. The annotation of yeast ORFs was obtained from Proteome BIOKNOWLEDGE Library (Incyte Genomics, Palo Alto, Calif.). In AF1, two different technologies were utilized: gene expression analysis (for examination of mRNA expression) and metabolite analysis. […] As noted previously, existing metabolic databases may be helpful in practicing the methods and systems of the present invention, but many databases include limitations that make their use in data analysis and pathway mapping less than straightforward. […] This caveat to KEGG makes it difficult to pinpoint the correct pathway when attempting to link a gene to a specific pathway.

[2] = test system: Saccharomyces cerevisiae wild type strain BY4743; experiment: AF1 combined gene expression and metabolite mapping to reactions and pathways (KEGG); format: cell-based
Source text: The pathway score indicates how meaningful the mapping is, or how likely it is to be correctly indicative of the pathway involved in the perturbation under examination. The method provides a pathway score based on perturbation levels of genes and/or compounds and the information content of each gene and/or compound in the pathway, i.e., a pathway score indicates the extent to which other pathways are mapped to a gene/compound. For example, imagine that two genes are perturbed in a particular experiment. One gene maps to only one pathway, giving a high degree of probability that the perturbed pathway is the one identified in the mapping. The second gene maps to three pathways. In the later example, there is only one-third the probability that the pathway identified in the mapping is the one perturbed. The present invention provides a method for calculating the pathway scores, so that more weight is given to a score of a gene or compound that maps to only one pathway than to a score of a gene or compound that maps to multiple pathways. […] Where n=the total number of genes in the pathway; ipath—count=the number of pathways containing a gene; and j=the number of genes in the pathway that are perturbed. Another factor to be considered when weighting a pathway score is the degree of perturbation. Degree of perturbation can be calculated, for example, based on a number of standard deviations from a norm, and included in an equation such as the one shown above, so that not only the number of pathways is taken into account, but also accounts for the amount of gene transcript or compound present as compared to a control. The data were then combined to determine the number of reactions showing an enzyme and at least one compound perturbed, and to determine the number of pathways having at least one enzyme and one perturbed compound perturbed. The results of the analysis are represented in Tables 16 and 17, and were difficult to interpret, illustrating that the ability to draw conclusions from compound mapping to pathways is limited when absent additional data.

SMILES	# Transcripts perturbed ([1]; P < 0.05)	# Transcripts perturbed ([1]; P < 0.1)	# Pathways Affected by at Least One Gene [1]	# Reactions Having an Enzyme and at Least One Compound Perturbed [2]	Number Of Pathways Having at Least One Enzyme and One Compound Perturbed (# Reactions) [2]
C[C@@H]1[C@H](O)[C@@H](C)/C=C/C=C/C=C/C=C/C=C/C=C/C=C/[C@H](O[C@@H]2O[C@H](C)[C@@H](O)[C@H](N)[C@@H]2O)C[C@@H]2O[C@](O)(C[C@@H](O)C[C@@H](O)[C@H](O)CC[C@@H](O)C[C@@H](O)CC(=O)O[C@H]1C)C[C@H](O)[C@H]2C(=O)O [Amphoteracin B]	4363	4652	97	54	37
OC(Cn1cncn1)(Cn1cncn1)c1ccc(F)cc1F [Fluconazole]	1411	1719	79	2	15
CC[C@@H]([C@H](C)O)n1ncn(-c2ccc(N3CCN(c4ccc(OC[C@@H]5CO[C@@](Cn6cncn6)(c6ccc(F)cc6F)C5)cc4)CC3)cc2)c1=O [Posaconazole]	690	925	69	0	3
